Data taken from publication PMC9584352, “Conserved Pib2 regions have distinct roles in TORC1 regulation at the vacuole” (Journal of Cell Science, 2022).
One block for each molecule: values may come before it.

Columns and labels:
Pib2 442–625 = molecular target: T1, Pib2 442–625 (Saccharomyces cerevisiae, UniProt P53191); assay: ITC; assay type: binding
T1 construct: FYVE domain fragment, start of FYVE domain to beginning of tail motif, residues 442-625; purified; predominantly monomeric by SEC-MALS
T1 sequence (P53191 442-625): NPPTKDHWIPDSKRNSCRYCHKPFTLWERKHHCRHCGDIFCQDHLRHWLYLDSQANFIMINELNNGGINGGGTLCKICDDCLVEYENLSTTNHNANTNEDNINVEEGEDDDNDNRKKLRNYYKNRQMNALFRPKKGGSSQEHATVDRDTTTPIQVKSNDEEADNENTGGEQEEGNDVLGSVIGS

EEA1 1347–1411 = molecular target: T2, EEA1 1347–1411 (Homo sapiens, UniProt Q15075); assay: ITC; assay type: binding
T2 construct: purified; largely monomeric by SEC-MALS
T2 sequence (Q15075 1347-1411): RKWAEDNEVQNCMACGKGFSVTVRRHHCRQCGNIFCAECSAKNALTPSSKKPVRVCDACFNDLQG

EEA1 1287–1411 = molecular target: T3, EEA1 1287–1411 (Homo sapiens, UniProt Q15075); assay: ITC; assay type: binding
T3 construct: purified; largely dimeric by SEC-MALS
T3 sequence (Q15075 1287-1411): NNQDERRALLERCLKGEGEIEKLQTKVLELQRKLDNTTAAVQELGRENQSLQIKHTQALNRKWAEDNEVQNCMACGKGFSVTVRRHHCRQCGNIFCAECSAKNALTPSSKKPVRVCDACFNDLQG

Pib2 419–625 = molecular target: T4, Pib2 419–625 (Saccharomyces cerevisiae, UniProt P53191); assay: ITC; assay type: binding
T4 construct: FYVE domain fragment starting 23 residues before the FYVE core, residues 419-625; purified; predominantly monomeric by SEC-MALS
T4 sequence (P53191 419-625): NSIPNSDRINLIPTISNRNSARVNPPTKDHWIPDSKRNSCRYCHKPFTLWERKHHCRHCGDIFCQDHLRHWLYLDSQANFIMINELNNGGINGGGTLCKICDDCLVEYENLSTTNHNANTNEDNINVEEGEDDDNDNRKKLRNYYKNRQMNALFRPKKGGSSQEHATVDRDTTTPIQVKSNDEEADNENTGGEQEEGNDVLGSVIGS

[1] = molecular target: the molecule itself; assay: SEC-MALS; Superdex 75 10/300 in 20 mM Tris-HCl pH 7.4, 150 mM NaCl, 1.93 mM β-mercaptoethanol, room temperature; 500 µl of each protein loaded at 50 or 100 µM as indicated; detectors at 25°C

- Kd (Pib2 442–625): 212 µM
- Kd (EEA1 1347–1411): > 300 µM
- Kd (EEA1 1287–1411): ~95.8 µM
- Kd (Pib2 419–625): > 290 µM
Molecule: O=P(O)(O)O[C@@H]1[C@H](O)[C@H](OP(=O)(O)O)[C@@H](O)[C@H](O)[C@H]1O [inositol 1,3-bisphosphate]

- Kd (Pib2 442–625): 736 µM
Molecule: CCCC(=O)OC[C@H](COP(=O)(O)O[C@@H]1[C@H](O)[C@H](OP(=O)(O)O)[C@@H](O)[C@H](O)[C@H]1O)OC(=O)CCC [PI3P diC4]

B1: EEA1 1287–1411 (domain or fragment, UniProt Q15075 1287-1411, looked up)
chain: T3 sequence (Q15075 1287-1411)
notes: also called longer EEA1 FYVE construct; source: purified
- stoichiometry N [1]: 2
